From ChEMBL document CHEMBL1201862, “PubChem BioAssay data set” (2004)
Active and inactive are the calls of the source.

What was measured:
[1] = HEK293 cell cytotoxicity, dose response, cytotoxicity control, plate reader, cherry-picked samples (AID 743446); assay type: functional, cell-based
[2] = HepG2 cell cytotoxicity, dose response, cytotoxicity control, plate reader, cherry-pick, antagonist series (AID 743416); assay type: functional, cell-based
[3] = A549 cell cytotoxicity, dose response, cytotoxicity control, plate reader, cherry-pick, antagonist series (AID 743412); assay type: functional, cell-based
[4] = LGR2 antagonists, dose response, cell-based, HEK293, CRE-luciferase reporter, cherry pick, set 2 (AID 743343); assay type: functional;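 further: transfected cells were stimulated with diluted bursicon conditioned medium after compound addition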
[5] = MC4R antagonists, dose response, counter-screen for LGR2 antagonist project, cell-based, plate reader, cherry pick (AID 743444); assay type: functional;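 further: transfected HEK 293 cells stimulated with alpha-MSH peptide; potency of inhibitors of the alpha-MSH evoked signal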
Aminopeptidase N = biological target: T1, Aminopeptidase N (Plasmodium falciparum FcB1/Columbia, UniProt O96935); test: P. falciparum M1AAP inhibitors, biochemical, fluorogenic H-Leu-NHMec substrate, 1536-well (AID 1445); design: species or system Plasmodium falciparum 3D7, 3D7
T1 sequence (O96935 whole entry): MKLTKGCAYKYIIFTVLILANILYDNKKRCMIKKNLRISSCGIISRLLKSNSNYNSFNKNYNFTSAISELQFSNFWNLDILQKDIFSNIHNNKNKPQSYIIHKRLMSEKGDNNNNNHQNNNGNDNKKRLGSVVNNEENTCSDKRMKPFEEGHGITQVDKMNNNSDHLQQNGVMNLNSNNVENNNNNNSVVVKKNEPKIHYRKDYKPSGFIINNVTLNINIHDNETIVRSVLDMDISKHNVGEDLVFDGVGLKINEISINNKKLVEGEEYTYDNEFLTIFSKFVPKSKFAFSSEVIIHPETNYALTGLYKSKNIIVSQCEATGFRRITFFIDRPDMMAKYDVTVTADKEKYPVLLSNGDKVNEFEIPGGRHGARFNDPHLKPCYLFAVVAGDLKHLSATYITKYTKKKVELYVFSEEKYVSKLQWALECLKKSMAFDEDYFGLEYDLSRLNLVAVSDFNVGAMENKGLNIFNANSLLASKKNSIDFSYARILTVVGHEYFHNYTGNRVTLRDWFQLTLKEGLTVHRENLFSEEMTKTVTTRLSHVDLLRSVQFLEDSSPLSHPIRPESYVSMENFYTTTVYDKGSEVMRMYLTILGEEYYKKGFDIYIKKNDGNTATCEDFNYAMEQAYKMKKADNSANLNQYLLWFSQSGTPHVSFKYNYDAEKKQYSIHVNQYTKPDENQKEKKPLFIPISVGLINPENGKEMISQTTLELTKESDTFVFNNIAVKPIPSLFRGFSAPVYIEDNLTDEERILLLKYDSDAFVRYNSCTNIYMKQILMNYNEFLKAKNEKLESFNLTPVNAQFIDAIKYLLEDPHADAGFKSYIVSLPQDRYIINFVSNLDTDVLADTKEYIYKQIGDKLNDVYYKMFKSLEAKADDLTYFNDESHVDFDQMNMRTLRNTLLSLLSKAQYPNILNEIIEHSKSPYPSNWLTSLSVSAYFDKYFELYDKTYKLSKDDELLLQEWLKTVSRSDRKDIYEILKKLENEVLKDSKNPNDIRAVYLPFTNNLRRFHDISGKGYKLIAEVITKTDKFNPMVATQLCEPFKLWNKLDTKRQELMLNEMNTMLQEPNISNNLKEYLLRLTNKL

[6] = inhibitors of Vif binding to APOBEC3G peptide, primary screen, biochemical, TR-FRET, GST-Vif 1-94, biotin-A3G peptide, dose response retest (AID 1117319); assay type: functional;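 further: TR-FRET signal of purified GST-Vif binding a biotinylated A3G peptide; inhibitors lower the FRET signal by blocking Vif and A3G binding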
[7] = biological target: T2, Endoribonuclease toxin MazF (Escherichia coli K-12, UniProt P0AE70); test: fluorescent RNA oligo signal without MazF, dose response, counter-screen for MazEF activator project, biochemical, fluorescence, single-stranded RNase substrate (AID 588502); assay type: functional
T2 sequence (P0AE70 whole entry): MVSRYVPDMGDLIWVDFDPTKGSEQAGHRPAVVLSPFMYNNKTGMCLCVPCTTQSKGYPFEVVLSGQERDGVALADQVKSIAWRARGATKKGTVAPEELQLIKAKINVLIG

[8] = biological target: T2, Endoribonuclease toxin MazF; test: MazF toxin RNase activators, dose response, biochemical, fluorescence, single-stranded RNA substrate, uHTS hits (AID 588481); assay type: functional
[9] = HepG2 cell cytotoxicity, dose response, cytotoxicity control, cherry-picked samples (AID 1159577); assay type: functional, cell-based
[10] = P. falciparum Dd2 growth inhibitors, dose response, SYBR Green, cherry-picked samples (AID 1159567); assay type: functional, cell-based

Structure (SMILES): COc1ccc2oc(C(=O)N3CCc4ccccc43)c(C)c2c1
- AC50 [1]: 33.9 µM (active)
- AC50 [2]: 21.5 µM (active)
- AC50 [3]: 20 µM (active)
- AC50 [4]: 7.5 µM (active)
- AC50 [5]: 6.24 µM (active)

Structure (SMILES): O=C(CSc1nc2c(c(=O)n1-c1ccc(Cl)cc1)SCC2)NCC1CCCO1 (stereo not drawn)
- IC50 (Aminopeptidase N): 58.3 µM (active)

Structure (SMILES): COCCCn1c(=N)c(C(=O)NCC2CCCO2)cc2c(=O)n3ccccc3nc21 (stereo not drawn)
- IC50 (Aminopeptidase N): 60.2 µM (active)

Structure (SMILES): COCCN(Cc1cc2ccccc2nc1O)C(=O)c1ccccc1OC
- IC50 [6]: > 100 µM (active)

Structure (SMILES): COc1ccc(CCN2C(=O)c3cccc4c(C(=O)N5CCCCC5)ccc(c34)C2=O)cc1OC
- AC50 [1]: 16.7 µM (active)
- AC50 [2]: > 52 µM (inactive)
- AC50 [3]: > 52 µM (inactive)
- AC50 [4]: 21.6 µM (active)
- AC50 [5]: 18 µM (active)

Structure (SMILES): Nc1c(C(=O)C2CC2)sc2nc(-c3cccs3)cc(C(F)(F)F)c12
- EC50 [7]: 10.6 µM (active)
- EC50 [8]: > 99 µM (inactive)

Structure (SMILES): Cc1ccc(/C=C2\SC(=S)N(CCC(=O)Nc3cccnc3)C2=O)cc1
- EC50 [7]: > 99 µM (inactive)
- EC50 [8]: > 99 µM (inactive)

Structure (SMILES): O=S(=O)(c1ccccc1F)N1C[C@@H]2N[C@H](C1)[C@H]2c1ccc(/C=C/c2ccccc2)cc1
- AC50 [9]: 16.1 µM (active)
- AC50 [10]: 3.4 µM (active)

Structure (SMILES): N#C[C@@H]1[C@H](c2ccccc2-c2cccc(F)c2)[C@H](CO)N1C(=O)NC1CCCC1
- AC50 [9]: > 39 µM (inactive)
- AC50 [10]: 6.42 µM (active)

Structure (SMILES): C[C@@H]1CN([C@@H](C)CO)S(=O)(=O)c2ccc(/C=C/c3ccccc3)cc2O[C@H]1CN(C)Cc1cncnc1
- AC50 [9]: > 39 µM (inactive)
- AC50 [10]: 5.17 µM (active)
